This is an account of results in patent US9458165B2, “DOT1L inhibitors” (Dana-Farber Cancer Institute, Inc., priority 2014, dated 2016).

For one data set, the target named is His6-DOT1L (Homo sapiens, UniProt Q8TEK3). Description: ALPHA assay (AlphaScreen) of probe displacement from DOT1L. Format: binding. To be noted: FIG. 9. The text has this:
In and ALPHA assay binding of binding partners captured on the beads leads to an energy transfer from one bead to the other, ultimately producing a luminescent signal. Alpha assays require two bead types: donor beads and acceptor beads. Donor beads contain a photosensitizer, phthalocyanine, which converts ambient oxygen to an excited and reactive form of O2, singlet oxygen, upon illumination at 680 nm. Within its 4 μsec half-life, singlet oxygen can diffuse approximately 200 nm in solution. If an Acceptor bead is within that distance, energy is transferred from the singlet oxygen to thioxene derivatives within the Acceptor bead, resulting in light production. If the Donor bead is not in proximity of an Acceptor bead, the singlet oxygen falls to ground state and no signal is produced. […]
Two stock solutions are made at 2× the final concentration in Alpha buffer. […] Finally, 10 μL of solution B is added to the 384 well alpha plate, the plate is spun down and incubated at room temperature and read on a plate reader.
Plates can be read with an Envision plate reader, which comes with a predefined AlphaScreen program that has the correct excitation and emission wavelengths, cutoff filters, delay time, etc. […]
Plates are incubated at room temperature for 20 minutes, then read on plate reader.

The next data set has as its system MV411. Description: Cellular activity in DOT1L related leukemia cell line (FIG. 10A). To be noted: compared to EPZ4777, FIG. 10A. The class given is cell-based.
For another data set, the system named is the related gene. As to the kind of experiment: Gene expression assay. The class given is cell-based. The following applies: compared to CC001 and EPZ4777, FIG. 6.
For the next data set, the system named is HL60. As to the kind of experiment: Cellular activity in HL60 cell line (FIG. 10B). The following applies: compared to EPZ4777, FIG. 10B. Format: cell-based.
Data set [1] in a line: Pharmacokinetic study, intravenous 5 mg/kg. To be noted: CD1 mice. The class given is in vivo. As for the experimental part:
Pharmacokinetic studies of the compound of Example 1 (i.e. CC-006) and previously disclosed compounds EPZ004777, CC001 (see U.S. 2014/0051654) and FED1 were performed in CD1 mice following intravenous administration, as detailed in Table 1.
Mean plasma concentration-time profiles representative of the compound of Example 1 (i.e. CC-006) after intravenous dosing (5 mg kg^−1) are shown in FIG. 8A (data represent the mean and s.d. (n=3)). […] From the pharmacokinetic properties, the compound of Example 1 (i.e. CC-006) has potential for use in treatment using intravenous administration due to its long half-life, as compared to subcutaneous administration.

Another data set deals with H3K27Me3 mark. Description: Western blot assay. The following applies: compared to EPZ004777 and CC001, FIG. 5. The class given is cell-based.
Data set [2] is described as follows: Cellular assays (not specified at the place). Format: cell-based. As for the experimental part:
The compounds of Examples 1-4 and known DOT1L inhibitors were analyzed in a High Content Imaging Assay (HCI).

His6-DOT1L, sequence (Q8TEK3 whole entry): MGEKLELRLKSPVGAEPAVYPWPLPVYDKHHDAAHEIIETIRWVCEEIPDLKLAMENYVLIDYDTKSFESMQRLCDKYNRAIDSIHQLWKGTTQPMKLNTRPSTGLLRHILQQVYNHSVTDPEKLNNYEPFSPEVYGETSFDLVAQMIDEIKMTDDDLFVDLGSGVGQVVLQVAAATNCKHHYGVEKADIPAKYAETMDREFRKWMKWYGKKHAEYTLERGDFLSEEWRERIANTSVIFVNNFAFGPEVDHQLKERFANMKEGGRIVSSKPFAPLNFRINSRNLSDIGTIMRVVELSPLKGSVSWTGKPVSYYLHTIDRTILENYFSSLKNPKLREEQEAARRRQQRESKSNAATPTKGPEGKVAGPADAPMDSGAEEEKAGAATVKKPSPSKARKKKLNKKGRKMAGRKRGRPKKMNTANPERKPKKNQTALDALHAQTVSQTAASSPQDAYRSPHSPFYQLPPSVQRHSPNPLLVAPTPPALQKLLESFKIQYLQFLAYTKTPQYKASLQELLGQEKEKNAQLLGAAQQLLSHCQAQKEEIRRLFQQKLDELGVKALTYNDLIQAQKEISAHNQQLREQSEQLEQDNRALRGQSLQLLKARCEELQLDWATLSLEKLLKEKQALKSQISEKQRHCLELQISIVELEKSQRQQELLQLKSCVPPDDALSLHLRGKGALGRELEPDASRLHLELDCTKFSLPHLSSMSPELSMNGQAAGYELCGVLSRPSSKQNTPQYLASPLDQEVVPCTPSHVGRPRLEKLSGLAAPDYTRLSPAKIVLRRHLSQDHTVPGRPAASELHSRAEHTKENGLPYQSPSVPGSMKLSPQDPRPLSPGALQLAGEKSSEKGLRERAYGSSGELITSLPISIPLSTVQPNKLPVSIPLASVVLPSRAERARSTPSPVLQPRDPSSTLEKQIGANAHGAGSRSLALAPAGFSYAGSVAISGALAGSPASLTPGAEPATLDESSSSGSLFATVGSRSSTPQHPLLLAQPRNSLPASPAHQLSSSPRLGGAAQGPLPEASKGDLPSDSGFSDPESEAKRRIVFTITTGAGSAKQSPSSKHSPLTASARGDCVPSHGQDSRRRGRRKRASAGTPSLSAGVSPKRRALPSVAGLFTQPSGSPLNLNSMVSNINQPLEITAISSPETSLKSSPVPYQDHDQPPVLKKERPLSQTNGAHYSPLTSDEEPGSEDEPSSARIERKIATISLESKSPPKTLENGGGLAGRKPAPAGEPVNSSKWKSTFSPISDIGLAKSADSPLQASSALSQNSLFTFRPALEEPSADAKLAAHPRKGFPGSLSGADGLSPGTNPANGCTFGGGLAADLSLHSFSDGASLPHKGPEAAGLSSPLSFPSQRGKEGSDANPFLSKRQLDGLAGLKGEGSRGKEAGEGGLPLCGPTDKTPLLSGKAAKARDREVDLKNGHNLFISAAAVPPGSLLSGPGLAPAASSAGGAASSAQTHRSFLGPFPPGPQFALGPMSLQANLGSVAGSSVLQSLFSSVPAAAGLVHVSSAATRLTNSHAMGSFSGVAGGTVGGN

With `CC(C)N(C[C@H]1C[C@@H](n2cc(C#N)c3c(N)ncnc32)[C@H](O)[C@@H]1O)C1CC(CCc2nc3ccc(C(C)(C)C)cc3[nH]2)C1` (stereo partly drawn) [Example 1, 4-amino-7-((1R,2S,3R,4R)-4-(((3-(2-(6-(tert-butyl)-1H-benzo[d]imidazol-2-yl)ethyl)cyclobutyl)(isopropyl)amino)methyl)-2,3-dihydroxycyclopentyl)-7H-pyrrolo[2,3-d]pyrimidine-5-carbonitrile], on His6-DOT1L, the “binding to DOT1L (ALPHA screen)” value was “binds to DOT1L”. Further, the “cellular activity on DOT1L related leukemia” value with MV411 is on record as “more potent than EPZ4777”. Further, the “down regulation of the related gene” value in the data set with the related gene was “down regulates the related gene more efficiently than known DOT1L inhibitor CC001 and very similar to EPZ4777”. Further, the “cellular activity on HL60” value in the data set with HL60 is “but not on HL60”. In data set [1], the “half-life relative to the half-life of EPZ004777” value is given as “approximately 4.3 ×” and the “half-life relative to the half-life of FED1” value was ~10.5 ×. The “drug exposure (area under the curve (AUC))” value in data set [1] (5 mg/kg, FIG. 8B) is listed as “good drug exposure”. Moreover, the half-life in data set [1] (mouse, plasma, 5 mg/kg, FIG. 8B, read-out: half-life (T1/2) (converted)) was 756 min. In the data set with H3K27Me3 mark, the “reduction of H3K27 trimethylation” value was “can reduce the H3K27 trimethylation at much lower dose compared to known DOT1L inhibitors EPZ004777 (structure shown below) and CC001”. Besides, the “cellular activity compared to CC0001” value in data set [2] is on record as “largely improved cellular activity compared to CC0001”.
